In patent US6384173B1, “Silicone functionalized triclosan” (Siltech LLC, priority 2001, dated 2002):
Like-named read-outs stand apart in the source and are kept apart here.

What was measured:
[1] = Thermal Gravimetric Analysis (weight percent lost); format: physicochemical; conditions: Perkin-Elmer TGA 7, temperature scanned from 40 to 250 degrees at 20 degree C./minute, at completion of scan
Protocol: Thermal Gravimetric Analysis
Measurements were obtained of the weight percent lost for the samples below using a Perkin-Elmer TGA 7 where the temperature was scanned from 40° to 250° at 20° C./minute. At the completion of the temperature scan for each, the following results were obtained: […]

[2] = TGA, 40 to 250 degrees at 20 degree C./minute; value marked (U.S. Pat. No. 6,197,072); cited from earlier work

Compound	% Weight Loss [1]	% Weight Loss [2]
Oc1cc(Cl)ccc1Oc1ccc(Cl)cc1Cl [Triclosan, triclosan]	62%	–
Triclosan Acetate	–	12 (U.S. Pat. No. 6,197,072) %
